From paper PMC4029172 (eLife, 2014)
≈ marks a conversion by molar mass, not a printed value. Numbered stars: 1 amine (or outer) side, 2 acyl side, 3 side chain; on linkers, the order of the positions; unused ones are H or OH. Bridge positions count the residues as written; N and C are the ends. Square brackets hold non-standard residues; d marks the D form. Peptide text beside a SMILES is read from it. * marks the point of attachment. X4 = CC(Oc1ccc(C(N[*:1])C(=O)[*:2])cc1)C(O)(C=CC(=O)[*:3])CCl; NMeF = CN[CH](Cc1ccccc1)C(=O)O; X3 = CC(C)C(O)C(C)C(=O)*

Assays:
[1] = target: Thermus thermophilus RNAP (Thermus thermophilus, UniProt Q8RQE8+Q8RQE9); test: biochemical
Thermus thermophilus RNAP, sequence (Q8RQE8 whole entry): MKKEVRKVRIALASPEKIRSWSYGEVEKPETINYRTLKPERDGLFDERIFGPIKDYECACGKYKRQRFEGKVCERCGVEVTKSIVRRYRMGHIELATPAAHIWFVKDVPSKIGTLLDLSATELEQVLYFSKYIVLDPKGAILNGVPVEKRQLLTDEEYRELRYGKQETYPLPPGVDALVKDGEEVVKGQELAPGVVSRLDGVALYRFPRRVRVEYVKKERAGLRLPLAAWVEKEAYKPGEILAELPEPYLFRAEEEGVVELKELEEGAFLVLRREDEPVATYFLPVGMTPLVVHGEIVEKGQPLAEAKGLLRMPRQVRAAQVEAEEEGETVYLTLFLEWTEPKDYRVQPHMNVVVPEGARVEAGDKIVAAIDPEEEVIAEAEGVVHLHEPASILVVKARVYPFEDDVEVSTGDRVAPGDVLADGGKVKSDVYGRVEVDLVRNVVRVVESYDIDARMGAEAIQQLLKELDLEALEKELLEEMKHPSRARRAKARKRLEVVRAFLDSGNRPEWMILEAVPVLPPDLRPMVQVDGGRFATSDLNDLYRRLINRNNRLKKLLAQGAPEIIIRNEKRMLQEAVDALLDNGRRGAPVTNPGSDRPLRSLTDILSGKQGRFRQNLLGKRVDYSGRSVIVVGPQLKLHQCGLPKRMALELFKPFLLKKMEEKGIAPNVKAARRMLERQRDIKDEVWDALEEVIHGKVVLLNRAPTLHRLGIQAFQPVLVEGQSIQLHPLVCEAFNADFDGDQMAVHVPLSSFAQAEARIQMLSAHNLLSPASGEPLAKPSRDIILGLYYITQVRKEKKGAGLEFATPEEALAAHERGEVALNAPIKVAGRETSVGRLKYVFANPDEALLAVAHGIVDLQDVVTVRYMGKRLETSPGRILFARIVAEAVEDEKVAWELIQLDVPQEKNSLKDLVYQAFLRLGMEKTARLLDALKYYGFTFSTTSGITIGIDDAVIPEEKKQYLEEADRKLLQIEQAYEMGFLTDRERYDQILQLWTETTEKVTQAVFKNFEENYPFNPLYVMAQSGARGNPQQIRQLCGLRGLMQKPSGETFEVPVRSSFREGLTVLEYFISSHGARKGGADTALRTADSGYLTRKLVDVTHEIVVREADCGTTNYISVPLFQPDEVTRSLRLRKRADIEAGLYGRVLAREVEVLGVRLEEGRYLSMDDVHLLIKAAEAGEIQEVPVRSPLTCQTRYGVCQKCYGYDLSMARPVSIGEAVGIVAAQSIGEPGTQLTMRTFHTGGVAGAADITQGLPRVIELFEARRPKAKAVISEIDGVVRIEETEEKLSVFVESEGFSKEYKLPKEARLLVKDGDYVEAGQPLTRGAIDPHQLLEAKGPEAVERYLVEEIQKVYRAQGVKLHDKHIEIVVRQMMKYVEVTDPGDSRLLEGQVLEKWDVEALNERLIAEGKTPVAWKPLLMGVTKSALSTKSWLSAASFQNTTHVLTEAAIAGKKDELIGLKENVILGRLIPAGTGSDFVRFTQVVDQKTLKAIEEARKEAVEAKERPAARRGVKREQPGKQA
Thermus thermophilus RNAP, sequence (Q8RQE9 whole entry): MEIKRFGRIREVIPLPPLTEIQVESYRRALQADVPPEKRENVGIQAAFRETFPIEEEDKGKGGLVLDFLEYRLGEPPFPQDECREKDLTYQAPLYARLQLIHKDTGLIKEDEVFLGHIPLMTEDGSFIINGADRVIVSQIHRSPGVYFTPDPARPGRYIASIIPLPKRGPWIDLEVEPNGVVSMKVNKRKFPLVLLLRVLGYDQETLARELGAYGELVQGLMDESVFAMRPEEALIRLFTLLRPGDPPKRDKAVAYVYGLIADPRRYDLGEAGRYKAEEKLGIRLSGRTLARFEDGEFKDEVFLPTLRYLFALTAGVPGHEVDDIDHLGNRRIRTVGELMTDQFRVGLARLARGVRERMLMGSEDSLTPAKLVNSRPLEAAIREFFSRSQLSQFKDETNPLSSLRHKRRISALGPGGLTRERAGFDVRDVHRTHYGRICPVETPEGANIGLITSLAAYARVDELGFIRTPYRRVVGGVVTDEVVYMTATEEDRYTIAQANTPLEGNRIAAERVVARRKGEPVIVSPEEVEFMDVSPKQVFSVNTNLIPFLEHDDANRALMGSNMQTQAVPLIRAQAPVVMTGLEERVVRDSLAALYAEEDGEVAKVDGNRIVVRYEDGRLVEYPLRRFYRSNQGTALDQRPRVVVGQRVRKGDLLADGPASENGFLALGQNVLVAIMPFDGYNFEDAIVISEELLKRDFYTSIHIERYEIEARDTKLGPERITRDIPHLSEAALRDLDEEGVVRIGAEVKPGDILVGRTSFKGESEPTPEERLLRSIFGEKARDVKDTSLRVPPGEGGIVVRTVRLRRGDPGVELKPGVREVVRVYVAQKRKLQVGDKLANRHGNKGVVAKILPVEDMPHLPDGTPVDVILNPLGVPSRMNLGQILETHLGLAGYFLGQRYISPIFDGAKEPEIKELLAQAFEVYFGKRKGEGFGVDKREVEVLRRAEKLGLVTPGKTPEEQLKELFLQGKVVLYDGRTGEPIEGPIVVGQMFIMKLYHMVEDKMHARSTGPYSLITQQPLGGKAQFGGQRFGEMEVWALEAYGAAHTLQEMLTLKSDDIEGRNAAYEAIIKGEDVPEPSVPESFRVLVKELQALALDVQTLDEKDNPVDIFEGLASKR

[2] = test system: Haemophilus influenzae ATCC 49247; test: microbe, parasite or virus in culture; format: cell-based; conditions: ATCC49247
[3] = test system: Moraxella catarrhalis ATCC 25238; test: microbe, parasite or virus in culture; format: cell-based; conditions: ATCC25238
[4] = test system: Enterobacter cloacae ATCC 13047; test: microbe, parasite or virus in culture; format: cell-based; conditions: ATCC13047

SMILES: CCC(C)C1NC(=O)C(NC(=O)C(C)C(O)C(C)C)C(C)OC(=O)C2COC(=O)CNC(=O)C=CC(O)(CCl)C(C)Oc3ccc(cc3)C(NC1=O)C(=O)N(C)C(Cc1ccccc1)C(=O)NC(C(C)O)C(=O)N2 (stereo not shown) [SalB, salinamide B] (X3-TI[X4][NMeF]TS; ester 1-C; linker 3-6 via G; configuration not given here)
- IC50 [1]: > 100 µM
- MIC [2]: 12.5 µg/mL (≈ 11.8 µM)
- MIC [3]: > 50 µg/mL
- MIC [4]: 12.5 µg/mL (≈ 11.8 µM)
